{"source": "patent US10828306B2", "about": "“Methotrexate for proliferative vitreoretinopathy” (Massachusetts Eye and Ear Infirmary, priority 2014, dated 2020)", "key": {"[1]": {"system": "human proliferative vitreoretinopathy (PVR) cells", "experiment": "Growth of human PVR cells in culture", "type": "cell-based", "settings": "for Growth of PVR cells versus control: methotrexate 400, 200, 100 (micrograms, μM), 30,000 cells per well", "experimental": "The cells were treated with 100 μM, 200 μM, or 400 μM Methotrexate (MTX) as indicated, and the images were taken after 72 hours (2A), 1 week (2B) or 2 weeks (2C).\nWe hypothesized that methotrexate would inhibit human proliferative vitreoretinopathy (PVR) cells in culture. PVR membranectomy was performed in patients undergoing retinal detachment repair secondary to PVR. Using cellular separation techniques, cellular constituents of the PVR membranes were separated from the extracellular matrix membranes. 30,000 cells per well were placed into a standard 12 welled plate. All 12 wells received endothelial cell growth medium with supplemental growth factors. Four arms were designated consisting of three wells each. The first arm served as a control receiving the standard growth medium but no other intervention. The remaining wells were designated as treatment arms. The second arm of three wells served as the first treatment arm and exposed the cells to 400 micrograms of methotrexate. The third and fourth arms of three wells each exposed the cultured cells to 200 and 100 micrograms, respectively, of methotrexate."}, "[2]": {"system": "patients with retinal detachment at high risk for proliferative vitreoretinopathy (PVR)", "experiment": "Pilot study of multiple intravitreal methotrexate injections after PPV in eyes at high risk for PVR", "type": "in vivo, human", "parameters": "IOP at last follow up / Final IOP: unit not given here", "from_the_text": "We hypothesized that the administration of multiple, intravitreal methotrexate injections into eyes with high-risk features for post-operative proliferative vitreoretinopathy (PVR) development will have improved visual outcomes, higher anatomic final reattachment rates, decreased reoperation rates, and decreased occurrence of PVR at 4 months postoperatively.\nWe have performed a small pilot study in 10 patients with retinal detachment whom had high-risk clinical factors for developing PVR.\nPatients 18 years to 89 years old of both genders were eligible for this study if they required pars plana vitrectomy (PPV) for rhegmatagenous retinal detachment secondary to trauma, PPV for preexisting proliferative vitreoretinopathy grade C or higher, or if they had retinal detachments requiring PPV for other indications associated with high risk condition for PVR development, i.e.: giant retinal tears (Giant retinal tears are defined as tears involving 90° or more of the circumference of the globe), retinal breaks larger than 3 disc areas, long-standing retinal detachments, detachments associated with hemorrhage.\nThe PPV was performed under local or general anesthesia using three, 23 or 20 gauge sclerotomy ports. Any present epiretinal membranes were dissected using a membrane pick and/or forceps. Intraoperative tissue staining, perfluorocarbons, cryopexy, endolaser, scleral buckling, and lensectomy were performed as needed. Either silicone oil or gas was used as the tamponading agent.\nRoutine post-operative visits, which involve a dilated funduscopic examination, occurred on post-operative day 1, 7, month 1, month 2, and month 3.\nIn addition to receiving the above-described standard of care, patients received multiple intravitreal methotrexate injections during their post-operative period. The first injection was administered intraoperatively and subsequently was injected on post-op week 1,2,3,4,5,6,7,8 and on post-op month 3, for a total of 10 injections. Intravitreal methotrexate injections were performed aseptically after the topical application of anaesthesia and 5% povidone iodine to the conjunctival sac. Each patient received an intravitreal injection of 400 mcg/0.1 ml methotrexate, 3.0 to 3.5 mm posterior to the limbus, depending on lens status, with a 30-gauge needle.\nAfter injection, patients were monitored for adverse events, including a full-dilated funduscopic examination."}, "[3]": {"system": "patients, eyes with a wide variety of conditions including PVR", "settings": "intravitreal, varying doses, cited from earlier work"}, "[4]": {"settings": "one patient (studyid), follow up 4 to 39 months"}, "[5]": {"settings": "one patient (studyid), intravitreal methotrexate 400 mcg/0.1 ml"}}, "note": "Values joined by “and” are separate entries in the source; they are usually repeats but may differ in a detail not shown here. Equal entries are not always repeated. “Also recorded” adds a separate entry of the source.", "data": [{"smiles": "CN(Cc1cnc2nc(N)nc(N)c2n1)c1ccc(C(=O)N[C@@H](CCC(=O)O)C(=O)O)cc1", "note": "[methotrexate, N-[4-[[(2,4-diamino-6-pteridinyl)methyl]methylamino]benzoyl]-L-glutamic acid]", "values": [{"measurement": "Proliferation of human PVR cells in culture", "setting": "[1]; 100 μM, 200 μM, or 400 μM", "result": "inhibited proliferation"}, {"measurement": "Growth of PVR cells versus control", "setting": "[1]; 1 week", "result": "growth inhibition and lack of confluency"}, {"measurement": "Growth of PVR cells versus control", "setting": "[1]; 2 weeks", "result": "inhibited growth and lack of confluency; also recorded: inhibition of cellular confluency continued"}, {"measurement": "Other subjects with reaccumulation of fluid under the retina requiring re-operation, no membranes", "setting": "[2]; 10 patients", "result": "Two"}, {"measurement": "Development of PVR while receiving methotrexate", "setting": "[2]; 10 patients, three-month treatment protocol", "result": "no subjects developed PVR"}, {"measurement": "Subjects with a degree of conjunctival hyperemia", "setting": "[2]; 10 patients, consistent with the use of silicone oil", "result": "All subjects"}, {"measurement": "Median post-operative visual acuity", "setting": "[2]; 10 patients, median pre-operative visual acuity Hand Motions at 2 feet", "result": "20/200"}, {"measurement": "Visual acuity and intraocular pressure at last follow up visit compared with post-operative month 4", "setting": "[2]; all patients", "result": "similar"}, {"measurement": "Significant adverse events", "setting": "[2]; follow up 4 to 39 months, median 25 months", "result": "no significant adverse events were observed"}, {"measurement": "Adverse events observed: Conjunctival hyperemia", "setting": "[2]; one patient (studyid)", "result": "4 (2×) and 7 (3×) and 5 (3×) and 6 (2×)"}, {"measurement": "Adverse events observed: Elevated intraocular pressure", "setting": "[2]; one patient (studyid)", "result": "0 (9×) and 1"}, {"measurement": "Adverse events observed: NLP", "setting": "[2]; one patient (studyid)", "result": "0 (9×) and 1"}, {"measurement": "Adverse events observed: Superficial Punctate Keratopathy", "setting": "[2]; one patient (studyid)", "result": "0 (9×) and 1"}, {"measurement": "Reoperations required", "setting": "[2]; one patient (studyid)", "result": "1 (2×) and 0 (8×)"}, {"measurement": "IOP at last follow up", "setting": "[2]; [4]", "result": "16 (2×) and 9 (3×) and 22 and 14 (2×) and 12 and 15"}, {"measurement": "Visual acuity at last follow up", "setting": "[2]; [4]", "result": "20/300 and 20/200 and NLP and 20/70 and 20/150 and 20/500"}, {"measurement": "Detachments: Number of detachments due to PVR during study period", "setting": "[2]; [5]", "result": "0 (9×) and 0*"}, {"measurement": "Final IOP", "setting": "[2]; [5]", "result": "12 (3×) and 9 (2×) and 10 and 8 and 15 and 13 (2×)"}, {"measurement": "Visual Acuity, Post-op month 4", "setting": "[2]; one patient (studyid), intravitreal methotrexate 400 mcg/0.1 ml, up to 10 injections over 3 months", "result": "20/200 (4×) and 20/160 and 20/252 and NLP and 20/65 and 20/320"}, {"measurement": "Elevated intraocular pressure by Goldmann Tonometry", "setting": "[2]; one patient, single examination, attributed to excessive steroid use", "result": 44, "unit": "mm Hg"}, {"measurement": "Patients with superficial punctuate keratopathy (SPK)", "setting": "[2]; single clinical exam, normal corneal surface one week later", "result": "one"}, {"measurement": "PVR after completion of the injection protocol", "setting": "[2]; trauma patient #4, at 3½ months postoperatively", "result": "massive PVR two weeks after completion of the injection protocol"}, {"measurement": "Change in visual acuity for the group", "setting": "[3]; 5 patients", "result": "no change in visual acuity"}, {"measurement": "Number of patients with any improved vision", "setting": "[3]; of 5 patients", "result": "one"}]}]}
